Broadly, the pKi is −log10 of the Ki, conventionally taken in molar units. Low readings indicate a large Ki, high ones a small Ki. Usually pEC50 stands for the EC50 on a negative log10 scale, so that one unit is a factor of ten.

One assay addresses GST-Bcl-2 (Homo sapiens, UniProt P10415). Briefly: TR-FRET binding assay, GST-Bcl-2 with F-Bak peptide probe. Particulars: for pKi: TR-FRET Binding Affinity, GST-Bcl-2, F-Bak peptide probe. Summed up: (§1)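 Competitive TR-FRET: GST-fusion protein, fluorescent Bak peptide probe and Tb-labelled anti-GST antibody incubated with compound dilution series (starting 50 μM as 2× stock, 10% DMSO) for 3 h at RT. Excitation 340/35 nm; Ki derived via Wang's exact competitive-binding equation.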
(In general: Time-resolved FRET reads energy transfer from a long-lived donor to a nearby acceptor.)

The next assay addresses GST-Bcl-XL (Homo sapiens, UniProt Q07817). Briefly: TR-FRET binding assay, GST-Bcl-XL with F-Bak peptide probe. Particulars: TR-FRET Binding Affinity, GST-Bcl-XL, F-Bak peptide probe. The procedure, abridged: as §1
A further assay relates to FL5.12/Bcl-2 cells. Briefly: FL5.12/Bcl-2 cell viability assay under IL-3 withdrawal (CellTitre Glo). Format: cell-based, murine. Particulars: Mus musculus, IL-3 withdrawn 48 hrs, then 24 hrs with compound. The procedure, abridged: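 Viability measured with CellTiter-Glo after 24 h compound treatment at various concentrations, following 48 h IL-3 withdrawal (no WEHI-3B medium). Cells: prolymphocytic mouse FL5.12 line stably transfected to overexpress Bcl-2, cultured at 37 °C, 5% CO2.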

pEC50, pKi: −log10 of the molar value.

GST-Bcl-XL, sequence (Q07817 whole entry): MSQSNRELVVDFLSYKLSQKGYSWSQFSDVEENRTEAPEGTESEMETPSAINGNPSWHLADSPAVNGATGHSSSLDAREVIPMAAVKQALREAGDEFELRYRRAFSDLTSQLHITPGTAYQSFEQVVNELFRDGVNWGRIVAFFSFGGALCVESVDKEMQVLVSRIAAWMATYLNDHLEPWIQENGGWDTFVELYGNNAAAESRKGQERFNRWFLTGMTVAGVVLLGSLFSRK
GST-Bcl-2, sequence (P10415 whole entry, the tested form may be a part): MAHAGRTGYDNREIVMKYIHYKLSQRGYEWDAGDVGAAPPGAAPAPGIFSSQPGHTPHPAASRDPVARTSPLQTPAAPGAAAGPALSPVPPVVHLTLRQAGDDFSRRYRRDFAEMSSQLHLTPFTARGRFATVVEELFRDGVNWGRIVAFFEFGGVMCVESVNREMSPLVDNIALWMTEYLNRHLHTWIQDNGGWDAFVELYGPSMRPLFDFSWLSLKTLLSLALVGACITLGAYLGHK

`CC1(C)CCC(CN2CCN(c3ccc(C(=O)NS(=O)(=O)c4ccc(OCCC5CCOCC5)c([N+](=O)[O-])c4)c(Oc4cccc5[nH]ccc45)c3)CC2)=C(c2ccc(Cl)cc2)C1` [Example 314, 4-(4-{[2-(4-chlorophenyl)-4,4-dimethylcyclohex-1-en-1-yl]methyl}piperazin-1-yl)-2-(1H-indol-4-yloxy)-N-{[3-nitro-4-(2-tetrahydro-2H-pyran-4-ylethoxy)phenyl]sulfonyl}benzamide]: the figures for the negative logarithm of the Ki (pKi) on GST-Bcl-2 and at GST-Bcl-XL were 8.51 and less than 6.18, respectively. In addition, the pEC50 in the assay with FL5.12/Bcl-2 cells is 6.62.

For `CC1(C)CCC(CN2CCN(c3ccc(C(=O)NS(=O)(=O)c4ccc(OCCCS(C)(=O)=O)c([N+](=O)[O-])c4)c(Oc4cccc5[nH]ccc45)c3)CC2)=C(c2ccc(Cl)cc2)C1` [Example 316, 4-(4-{[2-(4-chlorophenyl)-4,4-dimethylcyclohex-1-en-1-yl]methyl}piperazin-1-yl)-2-(1H-indol-4-yloxy)-N-({4-[3-(methylsulfonyl)propoxy]-3-nitrophenyl}sulfonyl)benzamide], the pKi is 9.83 at GST-Bcl-2 and 7.10 on GST-Bcl-XL. Further, the negative logarithm of the EC50 (pEC50) in the assay with FL5.12/Bcl-2 cells was 7.17.

For `COCCCNc1ccc(S(=O)(=O)NC(=O)c2ccc(N3CCN(CC4=C(c5ccc(Cl)cc5)CC(C)(C)CC4)CC3)cc2Oc2ccc3[nH]ccc3c2)cc1[N+](=O)[O-]` [Example 317, 4-(4-{[2-(4-chlorophenyl)-4,4-dimethylcyclohex-1-en-1-yl]methyl}piperazin-1-yl)-2-(1H-indol-5-yloxy)-N-({4-[(3-methoxypropyl)amino]-3-nitrophenyl}sulfonyl)benzamide], the figures for the pKi on GST-Bcl-2 and on GST-Bcl-XL were 8.55 and less than 6.18, respectively. Also, the pEC50 in the assay with FL5.12/Bcl-2 cells was 7.08.

On to `COCCCNc1ccc(S(=O)(=O)NC(=O)c2ccc(N3CCN(CC4=C(c5ccc(Cl)cc5)CC(C)(C)CC4)CC3)cc2Oc2cccc3[nH]ccc23)cc1[N+](=O)[O-]` [Example 318, 4-(4-{[2-(4-chlorophenyl)-4,4-dimethylcyclohex-1-en-1-yl]methyl}piperazin-1-yl)-2-(1H-indol-4-yloxy)-N-({4-[(3-methoxypropyl)amino]-3-nitrophenyl}sulfonyl)benzamide], for which the pKi at GST-Bcl-2 was 8.83; on GST-Bcl-XL it was 6.82. Besides, in the assay with FL5.12/Bcl-2 cells, the pEC50 was 7.11.

In the case of `CC1(C)CCC(CN2CCN(c3ccc(C(=O)NS(=O)(=O)c4ccc(NCCC#N)c([N+](=O)[O-])c4)c(Oc4ccc5[nH]ccc5c4)c3)CC2)=C(c2ccc(Cl)cc2)C1` [Example 319, 4-(4-{[2-(4-chlorophenyl)-4,4-dimethylcyclohex-1-en-1-yl]methyl}piperazin-1-yl)-N-({4-[(2-cyanoethyl)amino]-3-nitrophenyl}sulfonyl)-2-(1H-indol-5-yloxy)benzamide], the results for the negative-log Ki (pKi) on GST-Bcl-2 and at GST-Bcl-XL were 9.38 and 6.68, respectively. In addition, the pEC50 in the assay on FL5.12/Bcl-2 cells was 7.50.

With `CC1(C)CCC(CN2CCN(c3ccc(C(=O)NS(=O)(=O)c4ccc(NCCC#N)c([N+](=O)[O-])c4)c(Oc4cccc5[nH]ccc45)c3)CC2)=C(c2ccc(Cl)cc2)C1` [Example 320, 4-(4-{[2-(4-chlorophenyl)-4,4-dimethylcyclohex-1-en-1-yl]methyl}piperazin-1-yl)-N-({4-[(2-cyanoethyl)amino]-3-nitrophenyl}sulfonyl)-2-(1H-indol-4-yloxy)benzamide], the pKi was 8.91 at GST-Bcl-2 and 6.89 at GST-Bcl-XL. In addition, the negative-log EC50 (pEC50) in the assay with FL5.12/Bcl-2 cells is 7.38.

Consider `CC1(C)CCC(CN2CCN(c3ccc(C(=O)NS(=O)(=O)c4ccc(NCC56CC7CC(C5)C(O)[C@H](C7)C6)c([N+](=O)[O-])c4)c(Oc4ccc5[nH]ccc5c4)c3)CC2)=C(c2ccc(Cl)cc2)C1` (stereo partly drawn) [Example 321, 4-(4-{[2-(4-chlorophenyl)-4,4-dimethylcyclohex-1-en-1-yl]methyl}piperazin-1-yl)-N-{[4-({[(3R)-4-hydroxy-1-adamantyl]methyl}amino)-3-nitrophenyl]sulfonyl}-2-(1H-indol-5-yloxy)benzamide], for which the pKi is 9.16 on GST-Bcl-2 and less than 6.18 on GST-Bcl-XL. The negative logarithm of the EC50 (pEC50) in the assay on FL5.12/Bcl-2 cells was 7.54.

As to `CC1(C)CCC(CN2CCN(c3ccc(C(=O)NS(=O)(=O)c4ccc(NCC56CC7CC(C5)C(O)C(C7)C6)c([N+](=O)[O-])c4)c(Oc4ccc5[nH]ccc5c4)c3)CC2)=C(c2ccc(Cl)cc2)C1` (stereo not drawn) [Example 322, 4-(4-{[2-(4-chlorophenyl)-4,4-dimethylcyclohex-1-en-1-yl]methyl}piperazin-1-yl)-N-{[4-({[Cis-4-hydroxy-1-adamantyl]methyl}amino)-3-nitrophenyl]sulfonyl}-2-(1H-indol-5-yloxy)benzamide], the pKi was 9.74 on GST-Bcl-2 and less than 6.18 on GST-Bcl-XL. In addition, the “Binding selectivity ratio (Bcl-XL Ki/Bcl-2 Ki)” value at GST-Bcl-2 (ratio of TR-FRET Ki values, Bcl-XL over Bcl-2) is greater than 3591.4. Besides, the pEC50 in the assay with FL5.12/Bcl-2 cells is 7.35.

For `CC1(C)CCC(CN2CCN(c3ccc(C(=O)NS(=O)(=O)c4ccc(NCCC(F)(F)F)c([N+](=O)[O-])c4)c(Oc4cccc5[nH]ccc45)c3)CC2)=C(c2ccc(Cl)cc2)C1` [Example 323, 4-(4-{[2-(4-chlorophenyl)-4,4-dimethylcyclohex-1-en-1-yl]methyl}piperazin-1-yl)-2-(1H-indol-4-yloxy)-N-({3-nitro-4-[(3,3,3-trifluoropropyl)amino]phenyl}sulfonyl)benzamide], the negative logarithm of the Ki (pKi) on GST-Bcl-2 was 9.02; at GST-Bcl-XL it was less than 6.18. Further, in the assay on FL5.12/Bcl-2 cells, the negative-log EC50 (pEC50) is 7.04.

Take `CC1(C)CCC(CN2CCN(c3ccc(C(=O)NS(=O)(=O)c4ccc(NCCC(F)(F)F)c([N+](=O)[O-])c4)c(Oc4ccc5[nH]ccc5c4)c3)CC2)=C(c2ccc(Cl)cc2)C1` [Example 324, 4-(4-{[2-(4-chlorophenyl)-4,4-dimethylcyclohex-1-en-1-yl]methyl}piperazin-1-yl)-2-(1H-indol-5-yloxy)-N-({3-nitro-4-[(3,3,3-trifluoropropyl)amino]phenyl}sulfonyl)benzamide]: the negative-log Ki (pKi) on GST-Bcl-2 is 8.83; on GST-Bcl-XL, less than 6.18. In addition, in the assay with FL5.12/Bcl-2 cells, the pEC50 was 6.87.

For the molecule `CC1(C)CCC(CN2CCN(c3ccc(C(=O)NS(=O)(=O)c4cnc(NCC5CCOCC5)c(Br)c4)c(Oc4cccc5[nH]ccc45)c3)CC2)=C(c2ccc(Cl)cc2)C1` [Example 325, N-({5-bromo-6-[(tetrahydro-2H-pyran-4-ylmethyl)amino]pyridin-3-yl}sulfonyl)-4-(4-{[2-(4-chlorophenyl)-4,4-dimethylcyclohex-1-en-1-yl]methyl}piperazin-1-yl)-2-(1H-indol-4-yloxy)benzamide], the values for the pKi at GST-Bcl-2 and at GST-Bcl-XL were 8.63 and less than 6.18, respectively. Besides, in the assay on FL5.12/Bcl-2 cells, the negative-log EC50 (pEC50) was 6.59.

On to `CC1(C)CCC(CN2CCN(c3ccc(C(=O)NS(=O)(=O)c4ccc(NCC5CCS(=O)(=O)C5)c([N+](=O)[O-])c4)c(Oc4cccc5[nH]ccc45)c3)CC2)=C(c2ccc(Cl)cc2)C1` (stereo not shown) [Example 326, 4-(4-{[2-(4-chlorophenyl)-4,4-dimethylcyclohex-1-en-1-yl]methyl}piperazin-1-yl)-N-[(4-{[(1,1-dioxidotetrahydrothien-3-yl)methyl]amino}-3-nitrophenyl)sulfonyl]-2-(1H-indol-4-yloxy)benzamide], for which the values for the negative-log Ki (pKi) at GST-Bcl-2 and at GST-Bcl-XL were 9.94 and less than 6.18, respectively. Besides, the pEC50 with FL5.12/Bcl-2 cells is 7.45.

Take `CC1(C)CCC(CN2CCN(c3ccc(C(=O)NS(=O)(=O)c4ccc(OCC5(F)CCOCC5)c([N+](=O)[O-])c4)c(Oc4ccc5[nH]ccc5c4)c3)CC2)=C(c2ccc(Cl)cc2)C1` [Example 327, 4-(4-{[2-(4-chlorophenyl)-4,4-dimethylcyclohex-1-en-1-yl]methyl}piperazin-1-yl)-N-({4-[(4-fluorotetrahydro-2H-pyran-4-yl)methoxy]-3-nitrophenyl}sulfonyl)-2-(1H-indol-5-yloxy)benzamide]: the pKi is 10.51 at GST-Bcl-2 and 7.02 at GST-Bcl-XL. In addition, the pEC50 with FL5.12/Bcl-2 cells was 8.18.

With `CNc1ccc(S(=O)(=O)NC(=O)c2ccc(N3CCN(CC4=C(c5ccc(Cl)cc5)CC(C)(C)CC4)CC3)cc2Oc2ccc3[nH]ccc3c2)cc1S(=O)(=O)C(F)(F)F` [Example 328, 4-(4-{[2-(4-chlorophenyl)-4,4-dimethylcyclohex-1-en-1-yl]methyl}piperazin-1-yl)-2-(1H-indol-5-yloxy)-N-({4-(methylamino)-3-[(trifluoromethyl)sulfonyl]phenyl}sulfonyl)benzamide], the negative-log Ki (pKi) on GST-Bcl-2 is 8.73; on GST-Bcl-XL, less than 6.18. In the assay on FL5.12/Bcl-2 cells, the pEC50 was less than 6.30.

On to `CC1(C)CCC(CN2CCN(c3ccc(C(=O)NS(=O)(=O)c4cnc(OCC5CCOCC5)c(Br)c4)c(Oc4ccc5[nH]ccc5c4)c3)CC2)=C(c2ccc(Cl)cc2)C1` [Example 329, N-{[5-bromo-6-(tetrahydro-2H-pyran-4-ylmethoxy)pyridin-3-yl]sulfonyl}-4-(4-{[2-(4-chlorophenyl)-4,4-dimethylcyclohex-1-en-1-yl]methyl}piperazin-1-yl)-2-(1H-indol-5-yloxy)benzamide], for which the pKi at GST-Bcl-2 was 9.55; on GST-Bcl-XL, less than 6.18. Further, in the assay on FL5.12/Bcl-2 cells, the negative logarithm of the EC50 (pEC50) was 6.90.

For the molecule `CC(C)Oc1cc(-c2ccc(Cl)cc2)c(CN2CCN(c3ccc(C(=O)NS(=O)(=O)c4ccc(NCC5CCOCC5)c([N+](=O)[O-])c4)c(Oc4ccc5[nH]ccc5c4)c3)CC2)cn1` [Example 330, 4-(4-{[4-(4-chlorophenyl)-6-isopropoxypyridin-3-yl]methyl}piperazin-1-yl)-2-(1H-indol-5-yloxy)-N-({3-nitro-4-[(tetrahydro-2H-pyran-4-ylmethyl)amino]phenyl}sulfonyl)benzamide], the pKi on GST-Bcl-2 was 7.13; at GST-Bcl-XL it was less than 6.18. Moreover, in the assay on FL5.12/Bcl-2 cells, the pEC50 is less than 6.30.

The values above are taken from patent publication US9073855B2, “BCL-2 selective apoptosis-inducing agents for the treatment of cancer and immune diseases” (AbbVie Inc., priority 2008, dated 2015).
